Source: the supplement of paper PMC10307832

Compound: Cc1ccc(C(=O)Nc2ccc(CN3CCN(C)CC3)c(C(F)(F)F)c2)cc1C#Cc1cnc2cccnn12 [Ponatinib] + CS(=O)(=O)CCNCc1ccc(-c2ccc3ncnc(Nc4ccc(OCc5cccc(F)c5)c(Cl)c4)c3c2)o1 [Lapatinib] (partner 2 µM)
Experiment: relative viability (nuclei count vs DMSO), 5 days (fraction); higher = more cells survive
Conditions: first compound 0.002 µM
Method in brief: (§1)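 Lung cancer cell lines in 1536-well plates were dosed by pin tool the day after seeding, either with one drug alone or with a fixed anchor-drug dose plus five library-drug doses (not always all listed) in √10 steps. After 5 days, cells were fixed and their nuclei stained in one step (final 0.05% Triton X-100, 1% formaldehyde, 1 ug/ml Hoechst), then counted on 4× images. Relative viability is the nuclei count in treated wells divided by that in vehicle wells. Values are medians of duplicate plates.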

Row | Cell Line | relative viability
1 | A-427 | 1.05
2 | NCI-H460 | 0.942
3 | NCI-H727 | 0.794
4 | NCI-H1734 | 0.955
5 | NCI-H520 | 0.725
6 | NCI-H2405 | 0.928
7 | SW 1573 | 1.1
8 | 201T | 1.04
9 | NCI-H1915 | 0.908
10 | HCC-827 | 0.214
11 | LXF-289 | 0.855
12 | NCI-H23 | 1.03
13 | NCI-H650 | 0.886
14 | CAL-12T | 0.702
15 | NCI-H1651 | 0.724
16 | EPLC-272H | 0.917
17 | NCI-H2228 | 1.07
18 | NCI-H1792 | 0.854

Row | Cell Line | relative viability
19 | NCI-H1355 | 0.939
20 | NCI-H322M | 0.636
21 | NCI-H1437 | 0.742
22 | NCI-H1755 | 0.977
23 | NCI-H2023 | 0.81
24 | HCC-15 | 0.797
25 | NCI-H1944 | 0.775
26 | PC-3 [JPC-3] | 0.43
27 | EKVX | 0.222
28 | LC-2-ad | 0.969
29 | NCI-H1563 | 0.86
30 | NCI-H1975 | 0.811
31 | SK-LU-1 | 0.636
32 | ABC-1 | 1.1
33 | SK-MES-1 | 0.472
34 | NCI-H661 | 0.437
35 | RERF-LC-KJ | 0.8

Same assay, conditions: first compound 0.006325 µM

Row | Cell Line | relative viability
36 | A-427 | 0.96
37 | NCI-H460 | 0.853
38 | NCI-H727 | 0.825
39 | NCI-H1734 | 0.991
40 | NCI-H520 | 0.801
41 | NCI-H2405 | 1.03
42 | SW 1573 | 1.19
43 | 201T | 1.03
44 | NCI-H1915 | 0.95
45 | HCC-827 | 0.186
46 | LXF-289 | 0.895
47 | NCI-H23 | 1.02
48 | NCI-H650 | 0.835
49 | CAL-12T | 0.714
50 | NCI-H1651 | 0.955
51 | EPLC-272H | 1.05
52 | NCI-H2228 | 1.51
53 | NCI-H1792 | 0.85

Row | Cell Line | relative viability
54 | NCI-H1355 | 0.947
55 | NCI-H322M | 0.61
56 | NCI-H1437 | 0.848
57 | NCI-H1755 | 1.08
58 | NCI-H2023 | 0.861
59 | HCC-15 | 0.916
60 | NCI-H1944 | 0.807
61 | PC-3 [JPC-3] | 0.45
62 | EKVX | 0.217
63 | LC-2-ad | 0.697
64 | NCI-H1563 | 0.856
65 | NCI-H1975 | 0.817
66 | SK-LU-1 | 0.858
67 | ABC-1 | 1.17
68 | SK-MES-1 | 0.531
69 | NCI-H661 | 0.523
70 | RERF-LC-KJ | 0.882

Same assay, conditions: first compound 0.06325 µM

Row | Cell Line | relative viability
71 | A-427 | 1.05
72 | NCI-H460 | 1.08
73 | NCI-H727 | 1.11
74 | NCI-H1734 | 1.09
75 | NCI-H520 | 0.688
76 | NCI-H2405 | 1.08
77 | SW 1573 | 1.25
78 | 201T | 1.09
79 | NCI-H1915 | 0.986
80 | HCC-827 | 0.202
81 | LXF-289 | 0.894
82 | NCI-H23 | 1.31
83 | NCI-H650 | 0.819
84 | CAL-12T | 1
85 | NCI-H1651 | 0.896
86 | EPLC-272H | 0.957
87 | NCI-H2228 | 1.15
88 | NCI-H1792 | 0.92

Row | Cell Line | relative viability
89 | NCI-H1355 | 1.17
90 | NCI-H322M | 0.659
91 | NCI-H1437 | 0.885
92 | NCI-H1755 | 1.06
93 | NCI-H2023 | 0.958
94 | HCC-15 | 0.922
95 | NCI-H1944 | 0.915
96 | PC-3 [JPC-3] | 0.492
97 | EKVX | 0.349
98 | LC-2-ad | 0.49
99 | NCI-H1563 | 0.885
100 | NCI-H1975 | 1.14
101 | SK-LU-1 | 0.864
102 | ABC-1 | 1.2
103 | SK-MES-1 | 0.749
104 | NCI-H661 | 0.592
105 | RERF-LC-KJ | 0.881

Same assay, conditions: first compound 0.2 µM

Row | Cell Line | relative viability
106 | A-427 | 0.98
107 | NCI-H460 | 0.876
108 | NCI-H727 | 0.77
109 | NCI-H1734 | 0.888
110 | NCI-H520 | 0.531
111 | NCI-H2405 | 0.877
112 | SW 1573 | 1.22
113 | 201T | 1.02
114 | NCI-H1915 | 1.02
115 | HCC-827 | 0.184
116 | LXF-289 | 0.859
117 | NCI-H23 | 0.985
118 | NCI-H650 | 0.854
119 | CAL-12T | 0.698
120 | NCI-H1651 | 0.756
121 | EPLC-272H | 0.654
122 | NCI-H2228 | 1.13
123 | NCI-H1792 | 0.847

Row | Cell Line | relative viability
124 | NCI-H1355 | 1.02
125 | NCI-H322M | 0.518
126 | NCI-H1437 | 0.758
127 | NCI-H1755 | 0.943
128 | NCI-H2023 | 0.642
129 | HCC-15 | 0.901
130 | NCI-H1944 | 0.849
131 | PC-3 [JPC-3] | 0.502
132 | EKVX | 0.234
133 | LC-2-ad | 0.495
134 | NCI-H1563 | 0.727
135 | NCI-H1975 | 1.03
136 | SK-LU-1 | 0.741
137 | ABC-1 | 0.864
138 | SK-MES-1 | 0.59
139 | NCI-H661 | 0.361
140 | RERF-LC-KJ | 0.8

Compound: Cc1ccc(C(=O)Nc2ccc(CN3CCN(C)CC3)c(C(F)(F)F)c2)cc1C#Cc1cnc2cccnn12 [Ponatinib] + C[C@]1(O)C[C@@H](c2nc(-c3ccc4ccc(-c5ccccc5)nc4c3)c3c(N)nccn32)C1 [Linsitinib] (partner 1 µM)
Experiment: as above
Conditions: first compound 0.002 µM
Method in brief: as §1

Row | Cell Line | relative viability
141 | A-427 | 1.06
142 | NCI-H460 | 0.74
143 | NCI-H727 | 0.268
144 | NCI-H1734 | 0.792
145 | NCI-H520 | 0.773
146 | NCI-H2405 | 0.98
147 | SW 1573 | 0.838
